The record followed here is article PMC7817691 (Nature Communications, 2021).

For assay [1], the target named is T1, SARS-CoV-2 PLpro (Severe acute respiratory syndrome coronavirus 2, UniProt P0DTD1).
T1 construct: gene rep
Type of assay: binding.

Assay [2] has as its target T1, SARS-CoV-2 PLpro. It is filed as biochemical.

As for `Cc1ccc(N)cc1C(=O)N[C@H](C)c1cccc2ccccc12` [GRL0617], the “1H,15N-HSQC NMR competition with 15N-ISG15” value in assay [1] is reported as “GRL0617 competes with ISG15 for the binding site in PLpro”.

In assay [2], `Nc1nc(=S)c2[nH]cnc2[nH]1` [Tioguanine] yielded an IC50 of 72 ± 12 µM.

In the case of `CC(=O)Nc1ccc(C)c(C(=O)N[C@H](C)c2cccc3ccccc23)c1` [compound 6], the IC50 in assay [2] amounted to 11 ± 3 µM.

For orientation: IC50 means the concentration that inhibits the measured activity by half. High values mean a need for much substance, low ones inhibition by little substance.
